In patent US11732029B2, “Methods and compositions for the treatment of wounds” (The University of Chicago, priority 2017, dated 2023):
Entries after “also recorded” stand apart in the source; their conditions may differ.

Columns and labels:
[1] = Heparin binding to synthesized laminin peptides (ELISA); set-up: key to Interaction with Heparin: ++ indicates high affinities; + indicates medium/low affinities; settings: for binding to heparin: ELISA, peptide-coated plate, 10 μg/mL biotinylated heparin; for Interaction with Heparin: summary Table 2
Method: (§1) ELISA tests were performed as described above. In brief, ELISA plates were coated with 1 μg/mL of laminin alpha 3 LG domain recombinant protein, laminin alpha 4 LG domain recombinant protein (R&D systems), laminin alpha 5 LG domain recombinant protein (LD BioPharma), or laminin peptide (sequences are described in Table 1, chemically synthesized by Genscript) in PBS for 2 hrs at 37° C. 1 μg/mL of BSA served as non-binding protein control. After blocking with 2% BSA PBS-0.05% Tween 20 (PBS-T) solution, 1 μg/mL of the recombinant human proteins (VEGF-A121, VEGF-A165, PlGF-1, PlGF-2, PDGF-BB or FGF-2) or 10 μg/mL of biotinylated heparin (Sigma-Aldrich) were added. Bound GF was detected with biotinylated antibodies for human VEGF, PlGF, PDGF-BB, or FGF-2 (R&D Systems). The antibodies were detected by streptavidin-HRP (R&D Systems).

VEGF-A165 [2] = target: T1, VEGF-A165 (Homo sapiens, UniProt P15692); test: GF binding to recombinant laminin LG domain protein and synthesized laminin HBD peptides (ELISA); settings: plate coated with LG domain protein or peptide, 1 μg/mL GF, vs BSA-coated wells
T1 construct: All growth factors (GFs) and chemokines were purchased in their mature forms; purchased PeproTech; host or cells: Escherichia coli
T1 sequence (P15692 27-191 isoform P15692-4 limits assumed): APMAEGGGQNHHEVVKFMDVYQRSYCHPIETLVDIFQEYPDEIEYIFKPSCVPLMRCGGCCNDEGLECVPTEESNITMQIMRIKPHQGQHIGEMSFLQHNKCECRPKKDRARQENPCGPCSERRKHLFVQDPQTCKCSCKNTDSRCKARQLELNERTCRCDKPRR
Method: as §1

GFs = test: GF binding to synthesized laminin peptides (ELISA), all tested GFs together; set-up: species or system human; key to Interaction with GFs: ++ indicates high affinities; + indicates medium/low affinities; settings: for Interaction with GFs: summary Table 2; for binding to the tested GFs: ELISA, statement for all tested GFs (VEGF-A, PlGF, PDGF-BB, FGF-2)
Method: as §1

[3] = system: syndecan-1, syndecan-2, syndecan-3, syndecan-4; test: Recombinant syndecan binding to synthesized laminin HBD peptides (ELISA); set-up: species or system human; key to Interaction with Syndecans: ++ indicates high affinities; + indicates medium/low affinities; settings: for binding to recombinant syndecans (syndecan 1-4): ELISA, peptide-coated plate, 1 μg/mL syndecan; for Interaction with Syndecans: summary Table 2
Method: ELISA tests were performed as described above. In brief, ELISA plates were coated with 1 μg/mL laminin peptide (sequences are described in Table 1, chemically synthesized by Genscript) in PBS for 2 hrs at 37° C. 1 μg/mL of BSA served as non-binding protein control. After blocking with 2% BSA PBS-T solution, 1 μg/mL of the recombinant human syndecan-1, syndecan-2, syndecan-3, syndecan-4 (all syndecan proteins are histidine-tagged; SinoBiological) were added. Bound GF was detected with anti-histidine tag antibody (1:1000 dilution, BioLegend).

PlGF-2 = target: T2, PlGF-2 (Homo sapiens, UniProt P49763); test: GF binding to recombinant laminin LG domain protein and synthesized laminin HBD peptides (ELISA); set-up: All growth factors (GFs) and chemokines were purchased in their mature forms; purchased PeproTech; host or cells: Escherichia coli; settings: plate coated with LG domain protein or peptide, 1 μg/mL GF, vs BSA-coated wells
T2 sequence (P49763 19-170 isoform P49763-3 limits assumed): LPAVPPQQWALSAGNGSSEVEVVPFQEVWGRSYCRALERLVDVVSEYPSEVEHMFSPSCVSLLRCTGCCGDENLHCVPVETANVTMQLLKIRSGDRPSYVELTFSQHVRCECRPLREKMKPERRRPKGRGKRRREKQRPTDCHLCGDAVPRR
Method: as §1

human lung fibroblasts = test: Cell adhesion assay, fibroblasts on laminin peptide coated plates; type: cell-based; set-up: key to Cell adhesion Fibroblasts: ++ indicates high affinities; + indicates medium/low affinities; settings: for fibroblast attachment: peptide-coated plates, 30 min at 37° C., without EDTA; for Cell adhesion Fibroblasts: summary Table 2
Method: (§2) 96-well plates (non-tissue culture treated, Greiner Bio-one) were pre-coated with 1 μg/mL with laminin HBD peptides in PBS for 2 hrs at 37° C., followed by blocking with 2% BSA PBS for 1 h at RT. Cell adhesion assays were performed using human lung fibroblasts (Lonza) in FGM-2 medium (Lonza) or human umbilical vein endothelial cells (HUVEC; Lonza) in EGM-2 medium (Lonza) supplemented with 1% fetal bovine serum (FBS) and […] VEGF-A165, with or without 5 mM EDTA (Sigma-Aldrich). Cells were plated at 3000 cells/well on laminin peptide pre-coated plates and incubated for 30 min at 37° C., 5% CO2. Then, the medium was removed, and wells were quickly washed three times with PBS. Cell numbers were quantified using a CyQUANT assay, according to the manufacturer's instructions (Invitrogen). All cell lines were checked for mycoplasma contamination and used in passages from 5 to 8.

HUVEC = test: Cell adhesion assay, HUVEC on laminin peptide coated plates; type: cell-based, human; set-up: key to Cell adhesion HUVECs: ++ indicates high affinities; + indicates medium/low affinities; settings: for HUVEC attachment: peptide-coated plates, 30 min at 37° C., without EDTA; for Cell adhesion HUVECs: summary Table 2
Method: as §2

FGF-2 = FGF-2 (Homo sapiens, UniProt P09038); test: GF binding to recombinant laminin LG domain protein and synthesized laminin HBD peptides (ELISA); set-up: All growth factors (GFs) and chemokines were purchased in their mature forms; purchased PeproTech; host or cells: Escherichia coli; settings: plate coated with LG domain protein or peptide, 1 μg/mL GF, vs BSA-coated wells
Method: as §1

PDGF-BB = target: T3, PDGF-BB (Homo sapiens, UniProt P01127); test: as above; settings: plate coated with LG domain protein or peptide, 1 μg/mL GF, vs BSA-coated wells
T3 construct: All growth factors (GFs) and chemokines were purchased in their mature forms; purchased PeproTech; host or cells: Escherichia coli
Method: as §1

VEGF-A165 [4] = target: T1, VEGF-A165; test: vWF binding to recombinant VEGF-A isoforms (ELISA); settings: plate coated with 50 nM vWF domains, 1 μg/mL VEGF-A, vs BSA
Method: (§3) ELISA was performed as previously reported1. In brief, ELISA plates (med binding: Greiner Bio-One) were coated with 50 nM BSA (GE Healthcare), pro-peptide containing recombinant vWF (Sino Biological), plasma-derived vWF (EMD Millipore), recombinant human vWF A1 domain (U-Protein Express), recombinant human vWF A2 domain (R & D systems), recombinant human vWF A3 domain (U-Protein Express), vWF A1 HBD peptide or scrambled/mutated HBD peptide (all peptides were synthesized by Genscript). After blocking with 2% BSA solution containing PBS-T, 1 μg/mL of recombinant human VEGF-A121 (PeproTech), recombinant human VEGF-A145 (R & D Systems), or recombinant human VEGF-A165 (PeproTech) was added. Bound VEGF-A was detected with 1 μg/mL of mouse anti-human VEGF-A antibody (clone: 26503, R & D systems). After 60 min of incubation, horseradish peroxidase (HRP) conjugated goat anti-mouse antibody (1:2000 dilution, Dako) was added and incubated for another 60 min. Color development and the absorbance measurement were done as described above.

VEGF-A145 = target: T4, VEGF-A145 (Homo sapiens, UniProt P15692); test: vWF binding to recombinant VEGF-A isoforms (ELISA); settings: plate coated with 50 nM vWF domains, 1 μg/mL VEGF-A, vs BSA
T4 construct: All GFs and chemokines were purchased in their mature forms; purchased R & D Systems
T4 sequence (P15692 27-171 isoform P15692-6 limits assumed): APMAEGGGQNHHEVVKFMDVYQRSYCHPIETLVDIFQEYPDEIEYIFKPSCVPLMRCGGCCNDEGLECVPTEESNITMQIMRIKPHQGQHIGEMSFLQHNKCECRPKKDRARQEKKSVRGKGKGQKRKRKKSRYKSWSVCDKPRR
Method: as §3

Chain of FGF-2 (P09038 143-288): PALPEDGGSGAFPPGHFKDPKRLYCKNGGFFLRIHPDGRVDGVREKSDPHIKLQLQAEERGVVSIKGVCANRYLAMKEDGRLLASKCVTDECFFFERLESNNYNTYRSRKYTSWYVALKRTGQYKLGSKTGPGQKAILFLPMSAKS
T3 sequence (P01127 82-190 limits assumed): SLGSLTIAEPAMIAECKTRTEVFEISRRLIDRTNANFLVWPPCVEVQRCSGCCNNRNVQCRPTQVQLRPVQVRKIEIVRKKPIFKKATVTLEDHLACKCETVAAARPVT

Molecule	binding to heparin [1]	Interaction with Heparin [1]	binding to VEGF-A165 (VEGF-A165 [2])	Interaction with GFs (GFs)	binding to recombinant syndecans (syndecan 1-4) [3]	Interaction with Syndecans [3]	binding to PlGF-2 (PlGF-2)	fibroblast attachment (human lung fibroblasts)	Cell adhesion Fibroblasts (human lung fibroblasts)	HUVEC attachment (HUVEC)	Cell adhesion HUVECs (HUVEC)	binding to FGF-2 (FGF-2)	binding to PDGF-BB (PDGF-BB)	binding to VEGF-A165 (VEGF-A165 [4])	binding to VEGF-A145 (VEGF-A145)	binding to the tested GFs (GFs)
TPGLGPRGLQATARKASRRSRQPARHPACML [α53300-3330, laminin α5 chain linker peptide, 31 aa]	bound to heparin	++	preferentially bound	+	significant binding	++	preferentially bound	–	–	–	–	–	–	–	–	–
PPFLMLLKGSTRFNKTKTFR [α32932-2951, laminin α3 chain LG3-LG4 linker peptide, 20 aa]	bound to heparin	++	preferentially bound	+	weak binding	+	–	enhancement of fibroblast attachment	+	promoted HUVEC attachment	+	preferentially bound	–	–	–	–
RQRSRPGRWHKVSVRWEKNR [α53417-3436, laminin α5 chain LG4-derived peptide, 20 aa]	bound to heparin	++	bound	++	significant binding	++	bound	enhancement of fibroblast attachment	+	–	–	bound	bound	–	–	–
TLFLAHGRLVYMFNVGHKKLKIR [α41521-1543, laminin α4 chain LG4-derived peptide, 23 aa]	bound to heparin	++	–	+	significant binding	++	–	enhancement of fibroblast attachment	+	promoted HUVEC attachment	+	–	not statistically significant	–	–	–
pro-peptide-containing recombinant vWF: immature, pro-peptide containing recombinant vWF (Sino Biological)	–	–	–	–	–	–	–	–	–	–	–	–	–	bind	–	–
PLFLLHKKGKNLSKPKASQNKKGGKSK [α41408-1434, laminin α4 chain linker peptide, 27 aa]	bound to heparin	++	bound	++	significant binding	++	bound	–	–	–	–	bound	bound	–	–	–
KNSFMALYLSKGR [α33031-3043, laminin α3 chain LG4-derived peptide, 13 aa]	non-heparin binding	–	bound	+	weak binding	+	–	enhancement of fibroblast attachment	+	–	–	–	–	–	–	–
A3: recombinant human vWF A3 domain (U-Protein Express)	–	–	–	–	–	–	–	–	–	–	–	–	–	no binding	no binding	–
TLPDVGLELEVR [α53539-3550, laminin α5 chain LG5-derived peptide, 12 aa]	did not show binding to heparin; also recorded: non-heparin binding	–	–	+	did not show binding	–	–	–	–	–	–	–	–	–	–	significantly bound to all tested GFs
ARKASRRSRQPARH [α53312-3325, laminin α5 chain linker peptide, 14 aa]	did not bind to heparin	–	–	–	weak binding	+	–	–	–	–	–	–	–	–	–	did not show particular binding to any tested GF
vWF A2: recombinant human vWF A2 domain (R & D systems) (protein) DVAFVLEGSDKIGEADFNRSKEFMEEVIQRMDVGQDSIHVTVLQYSYMVTVEYPFSEAQSKGDILQRVREIRYQGGNRTNTGLALRYLSDHSFLVSQGDREQAPNLVYMVTGNPASDEIKRLPGDIQVVPIGVGPNANVQELERIGWPNAPILIQDFETLPREAPDLV	–	–	–	–	–	–	–	–	–	–	–	–	–	no binding	no binding	–
